Experimental data reported in patent publication US11498949B2, “System and method for high-yield transient expression in mammalian cells” (LIFE TECHNLOLOGIES CORPORATION, priority 2012, dated 2022).

System: hIgG expression
Assay: Expression enhancers in the transient transfection system, hIgG yield
Type: cell-based
Conditions: enhancer added alone to transient transfection; vs. control with neither Enhancer 1 nor Enhancer 2
Text: Components were formulated into 2 stable Enhancer solutions.

Row | Structure (SMILES) | effect on hIgG expression
1 | CCCC(CCC)C(=O)O [Enhancer 1, valproic acid] | doubles hIgG expression
2 | CCC(=O)[O-].[Na+] [Enhancer 2, sodium propionate] | no strong effect alone
